Assays:
[1] = test system: MEK1 phosphorylation at S298; experiment: Cellular PAK IC50 assay: MEK1 (S298) phosphorylation by HTRF in EBC1 cells; format: cell-based; details: Homo sapiens, EBC-1, 2 h treatment, media containing 0.1% FBS
Experimental: Cellular PAK IC50 Assay Protocol
Group I PAKs (PAK1-3) are activated upon binding to the Rho GTPases, Rac 1 and Cdc42. Activated group I PAKs phosphorylate MEK1 at Serine 298 (S298), one of the two sites in the catalytic domain that is important for stable association between Raf and MEK1 and subsequent MAPK activation. The inhibition of group I PAKs in EBC1 cells is assessed by detecting changes in the level of MEK1 phosphorylation at S298 using homogenous time-resolved fluorescence (HTRF). Inhibitory activity was estimated by treating 2×10^4 EBC1 cells for 2 h with PAK inhibitors in media containing 0.1% FBS. Following inhibitor treatment, cells were lysed with 25 μL of 1× cellular kinase lysis buffer (Cisbio) containing 1× cellular kinase blocking reagent (Cisbio). Cellular lysis was carried out at 4° C. for 2 h with constant shaking before lysate (16 μL) was transferred to white 384-well ProxiPlates™ (Perkin Elmer). Anti-total MEK1 antibody labeled with Europium cryptate donor (1 ng/well) (Cell Signaling Technologies catalog number 2352) and anti-phospho MEK1 (S298) antibody labeled with d2 acceptor (Cell Signaling Technologies catalog number 9128) (10 ng/well) were prepared in 1× detection buffer (CisBio) and added to each well of the assay plate and allowed to incubate at RT overnight. The following day the fluorescence emission from each well was measured in EnVision® (Perkin Elmer) at an excitation of 330 nm and dual emission wavelengths of 615 nm and 665 nm. The signal in each well at 665 nm was multiplied by 10,000 and divided by the signal in the same well at 615 nm to obtain a ratio. Ratio values ([665*10,000]÷615) were plotted as a function of the concentration of compound to determine IC50 values.

[2] = target: T1, human recombinant GST-PAK1-KD protein (Homo sapiens, UniProt Q13153); experiment: GST-PAK1-KD (Kinase Domain) IC50 biochemical assay (microfluidic mobility shift); details: GST-PAK1-KD inhibition assay
T1 construct: residues #249-545 of human PAK1, UniProtKP/Swiss Q13153; made in house; host or cells: Sf9 insect cells (pAcGP67 baculovirus expression vector)
Experimental: GST-PAK1-KD (Kinase Domain) IC50 Biochemical Assay Protocol
Activity of human recombinant GST-PAK1-KD protein was assessed in vitro assay by observing the phosphorylation of a fluorogenic peptide substrate.
The peptide substrate is a consensus sequence based on various PAK1 substrates reported in the scientific literature. […] Incubations were carried out at 22° C. in MatriCal MP101 384-well Metriplates™. […] Following the 30-minute incubation, the assay mixtures were quenched by the addition of 3 μL of 250 mM EDTA, and the substrate and phosphorylated product were separated by capillary electrophoresis and detected using LabChip® Caliper 3000 (Caliper Life Sciences).

T1 sequence (Q13153 249-545): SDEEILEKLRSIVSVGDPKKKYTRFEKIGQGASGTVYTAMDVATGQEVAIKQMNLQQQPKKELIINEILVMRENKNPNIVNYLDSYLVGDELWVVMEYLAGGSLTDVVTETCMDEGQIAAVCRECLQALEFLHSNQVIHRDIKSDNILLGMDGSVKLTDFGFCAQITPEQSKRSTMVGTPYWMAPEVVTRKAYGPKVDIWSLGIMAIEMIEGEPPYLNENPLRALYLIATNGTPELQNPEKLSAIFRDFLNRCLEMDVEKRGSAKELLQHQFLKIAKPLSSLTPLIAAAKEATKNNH

SMILES	IC50 [1] [nM]	Ki [2] [nM]
C[C@H](Nc1nccc(Nc2cc(C3CC3)[nH]n2)n1)c1nccc2[nH]ccc12 [Compound I-4, N^2-((S)-1-(1H-pyrrolo[3,2-c]pyridin-4-yl)ethyl)-N^4-(5-cyclopropyl-1H-pyrazol-3-yl)pyrimidine-2,4-diamine]	325	60
c1cc(Nc2cc(C3CC3)[nH]n2)nc(NCc2cnc3[nH]ccc3c2)n1 [Compound I-6, N^2-((1H-Pyrrolo[2,3-b]pyridin-5-yl)methyl)-N^4-(5-cyclopropyl-1H-pyrazol-3-yl)pyrimidine-2,4-diamine]	709	72
CN(Cc1ccc2[nH]ccc2n1)c1nccc(Nc2cc(C3CC3)[nH]n2)n1 [Compound I-10, N^2-((1H-pyrrolo[3,2-b]pyridin-5-yl)methyl)-N^4-(5-cyclopropyl-1H-pyrazol-3-yl)-N^2-methylpyrimidine-2,4-diamine]	1100	67
C[C@@H](c1ccc2[nH]ccc2n1)N(C)c1nccc(Nc2cc(C3CC3)[nH]n2)n1 [Compound I-18, (S)—N^2-(1-(1H-pyrrolo[3,2-b]pyridin-5-yl)ethyl)-N^4-(5-cyclopropyl-1H-pyrazol-3-yl)-N^2-methylpyrimidine-2,4-diamine]	221	24
C[C@@H](c1ccc2[nH]ccc2n1)N(C)c1nccc(Nc2cc([C@@H]3C[C@@H]3F)[nH]n2)n1 [Compound I-24, N^2-((S)-1-(1H-pyrrolo[3,2-b]pyridin-5-yl)ethyl)-N^4-(5-((1S,2S)-2-fluorocyclopropyl)-1H-pyrazol-3-yl)-N^2-methylpyrimidine-2,4-diamine]	191	52
c1cc(Nc2cc(C3CC3)[nH]n2)nc(NCc2cncc3[nH]cnc23)n1 [Compound I-33, N^2-((3H-imidazo[4,5-c]pyridin-7-yl)methyl)-N^4-(5-cyclopropyl-1H-pyrazol-3-yl)pyrimidine-2,4-diamine]	–	494

The next compounds have a lower Ki [2] than those just listed; values first:

IC50 [1] [nM]	Ki [2] [nM]	SMILES
68.4	5	C[C@H](Nc1nccc(Nc2cc(C3CC3)[nH]n2)n1)c1cc2cc[nH]c2cn1 [Compound I-7, (S)—N^2-(1-(1H-pyrrolo[2,3-c]pyridin-5-yl)ethyl)-N^4-(5-cyclopropyl-1H-pyrazol-3-yl)pyrimidine-2,4-diamine]
45.5	16	C[C@H](Nc1nccc(Nc2cc(C3CC3)[nH]n2)n1)c1ccc2[nH]ccc2n1 [Compound I-12, (S)—N^2-(1-(1H-pyrrolo[3,2-b]pyridin-5-yl)ethyl)-N^4-(5-cyclopropyl-1H-pyrazol-3-yl)pyrimidine-2,4-diamine]
72.6	22	C[C@H](Nc1nccc(Nc2cc(C3CC(F)(F)C3)[nH]n2)n1)c1ccc2[nH]ccc2n1 [Compound I-16, (S)—N^2-(1-(1H-pyrrolo[3,2-b]pyridin-5-yl)ethyl)-N^4-(5-(3,3-difluorocyclobutyl)-1H-pyrazol-3-yl)pyrimidine-2,4-diamine]
53.1	8	C[C@@H](c1ccc2[nH]ccc2n1)N(C)c1nccc(Nc2cc([C@H]3C[C@@H]3F)[nH]n2)n1 [Compound I-28, N^2—((S)-1-(1H-pyrrolo[3,2-b]pyridin-5-yl)ethyl)-N^4-(5-((1R,2S)-2-fluorocyclopropyl)-1H-pyrazol-3-yl)-N^2-methylpyrimidine-2,4-diamine]
–	3	C[C@H](Nc1nccc(Nc2cc(C3CC3)[nH]n2)n1)c1ncc2[nH]ccc2n1 [Compound I-35, (S)—N^2-(1-(5H-pyrrolo[3,2-d]pyrimidin-2-yl)ethyl)-N^4-(5-cyclopropyl-1H-pyrazol-3-yl)pyrimidine-2,4-diamine]

— patent US8815877B2, “Serine/threonine kinase inhibitors” (Genentech, Inc., priority 2011, dated 2014)
